This is an account of results in patent US9790217B2, “Pyridinyloxy- and phenyloxy-pyrazolyl compounds” (Hoffmann-La Roche Inc., priority 2014, dated 2017).

Bounds are passed on as bounds.

Test [1] concerns the target human CYP11B2 (Homo sapiens (Human), UniProt P19099). The test can be described thus: G-402 cellular enzyme assay, human CYP11B2 (aldosterone release, HTRF). The format is cell-based. As to conditions: G-402 cells expressing human CYP11B2; 1 μM Deoxycorticosterone. The source says: (§1) Herein we identified the use of the G-402 cell line as a host cell to ectopically express (transiently or stably) enzymes of the CYP11 family. Specifically we developed stable G-402 cells expressing ectopically human CYP11B1, human CYP11B2, human CYP11A1, cynmolgus CYP11B1 or cynomolgus CYP11B2 enzyme activity. Importantly the identified cell line G-402 expresses co-factors (adrenodoxin and adrenodoxin reductase) important for the activity of the CYP11 family and no relevant enzyme activity of the CYP11 family (in comparison to H295R cells) was detected in these cells. Therefore the G-402 cell line is uniquely suited as a host cell for the ectopic expression of enzymes from the CYP11 family.
(§2) G-402 cells can be obtained from ATCC (CRL-1440) and were originally derived from a renal leiomyoblastoma.
(§3) The expression plasmids contains the ORF for either human/cyno CYP11B1 or CYP11B2 under the control of a suitable promoter (CMV-promoter) and a suitable resistance marker (neomycin). Using standard techniques the expression plasmid is transfected into G-402 cells and these cells are then selected for expressing the given resistance markers. Individual cell-clones are then selected and assessed for displaying the desired enzymatic activity using 11-Deoxycorticosterone (Cyp11B2) or 11-Deoxycortisol (Cyp11B1) as a substrate.
(§4) G-402 cells expressing CYP11 constructs were established as described above and maintained in McCoy's 5a Medium Modified, ATCC Catalog No. 30-2007 containing 10% FCS and 400 μg/ml G418 (Geneticin) at 37° C. under an atmosphere of 5% CO2/95% air. Cellular enzyme assays were performed in DMEM/F12 medium containing 2.5% charcoal treated FCS and appropriate concentration of substrate (0.3-10 uM 11-Deoxycorticosterone, 11-Deoxycortisol or Corticosterone). For assaying enzymatic activity, cells were plated onto 96 well plates and incubated for 16 h. An aliquot of the supernatant is then transferred and analyzed for the concentration of the expected product (Aldosterone for CYP11B2; Cortisol for CYP11B1). The concentrations of these steroids can be determined using HTRF assays from CisBio analyzing either Aldosterone or Cortisol.
(§5) Inhibition of the release of produced steroids can be used as a measure of the respective enzyme inhibition by test compounds added during the cellular enzyme assay. The dose dependent inhibition of enzymatic activity by a compound is calculated by means of plotting added inhibitor concentrations (x-axes) vs. measured steroid/product level (y-axes). The inhibition is then calculated by fitting the following 4-parameter sigmoidal function (Morgan-Mercer-Flodin (MMF) model) to the raw data points using the least squares method:
(§6) [formula] wherein, A is the maximum y value, B is the EC50 factor determined using XLFit, C is the minimum y value and D is the slope value.
(§7) EC50 values for compounds claimed herein were tested with the G402-based assay system described. Cyp11B2 enzyme activity was tested in presence of 1 μM Deoxycorticosterone and variable amounts of inhibitors; Cyp11B1 enzyme activity was tested in presence of 1 μM Deoxycortisol and variable amounts of inhibitors.
On the technique in general: Time-resolved FRET reads energy transfer from a long-lived donor to a nearby acceptor.

Test [2] concerns the target human CYP11B1 (Homo sapiens (Human), UniProt P15538). The test can be described thus: G-402 cellular enzyme assay, human CYP11B1 (cortisol release, HTRF). It is filed as cell-based. The following applies: G-402 cells expressing human CYP11B1; 1 μM Deoxycortisol.
From the text: as §1, §2, §3, §4, §5, §6, §7

Chain of human CYP11B1 (P15538 25-503): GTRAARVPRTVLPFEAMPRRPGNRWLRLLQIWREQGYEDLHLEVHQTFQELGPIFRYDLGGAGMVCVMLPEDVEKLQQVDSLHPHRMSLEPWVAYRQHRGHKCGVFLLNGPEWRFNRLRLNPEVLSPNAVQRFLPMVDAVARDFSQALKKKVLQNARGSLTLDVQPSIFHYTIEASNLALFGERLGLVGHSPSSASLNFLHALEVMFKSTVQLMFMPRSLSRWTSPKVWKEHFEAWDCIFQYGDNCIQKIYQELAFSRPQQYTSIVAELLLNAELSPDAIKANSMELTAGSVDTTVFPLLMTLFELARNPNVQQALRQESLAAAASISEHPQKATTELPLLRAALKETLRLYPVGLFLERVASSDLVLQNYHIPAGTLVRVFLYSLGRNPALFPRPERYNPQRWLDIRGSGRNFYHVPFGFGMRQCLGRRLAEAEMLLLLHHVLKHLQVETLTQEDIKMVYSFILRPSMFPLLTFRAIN
Chain of human CYP11B2 (P19099 25-503): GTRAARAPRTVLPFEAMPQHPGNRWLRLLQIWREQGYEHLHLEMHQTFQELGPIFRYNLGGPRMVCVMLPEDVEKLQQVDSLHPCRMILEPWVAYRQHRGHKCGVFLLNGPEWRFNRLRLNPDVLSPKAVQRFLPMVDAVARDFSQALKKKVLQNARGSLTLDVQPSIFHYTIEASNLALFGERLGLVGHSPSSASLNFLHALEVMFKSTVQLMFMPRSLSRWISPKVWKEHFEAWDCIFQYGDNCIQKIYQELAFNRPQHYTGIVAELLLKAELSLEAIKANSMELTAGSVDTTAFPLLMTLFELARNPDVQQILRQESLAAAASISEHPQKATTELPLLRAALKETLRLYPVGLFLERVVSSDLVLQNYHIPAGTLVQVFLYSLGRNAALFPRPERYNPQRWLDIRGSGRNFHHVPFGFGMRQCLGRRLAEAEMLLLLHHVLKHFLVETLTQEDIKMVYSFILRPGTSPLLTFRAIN

The term EC50 denotes the midpoint of the concentration-response curve. A high value points to a less potent agent. In the case of `N#Cc1ccc(Oc2cn[nH]c2-c2ccccc2Cl)c(F)c1` [Example 28, 4-[[5-(2-Chlorophenyl)-1H-pyrazol-4-yl]oxy]-3-fluorobenzonitrile], the EC50 in test [1] was 1.5 nM; in test [2], 134 nM.
Taken in the same sequence, the figures for `COc1ccccc1-c1[nH]ncc1Oc1ccc(Cl)cc1` [Example 4, 4-(4-Chlorophenoxy)-3-(2-methoxyphenyl)-1H-pyrazole] were 0.1 nM and 1.3 nM.
Taken in the same sequence, the figures for `N#Cc1ccc(Oc2cn[nH]c2-c2cccc(CN3CCOCC3)c2)cc1` [Example 75, 4-[[3-[3-(Morpholin-4-ylmethyl)phenyl]-1H-pyrazol-4-yl]oxy]benzonitrile] were 8.5 nM and 139 nM.
Taken in the same sequence, the figures for `CS(=O)(=O)N1CCN(C(=O)c2cccc(-c3[nH]ncc3Oc3ccc(C#N)cc3)c2)CC1` [Example 46, 4-[[3-[3-(4-Methylsulfonylpiperazine-1-carbonyl)phenyl]-1H-pyrazol-4-yl]oxy]benzonitrile] were 1050 nM and 10700 nM.
On to `Clc1ccc(Oc2cn[nH]c2-c2ccccc2Cl)cn1` [Example 19, 2-Chloro-5-[[5-(2-chlorophenyl)-1H-pyrazol-4-yl]oxy]pyridine], for which the figures for the EC50 in test [1] and in test [2] were 113 nM and 387 nM, respectively.
Consider `CCCCOc1cccc(-c2[nH]ncc2Oc2ccc(C#N)cc2)c1` [Example 59, 4-[[5-(3-Butoxyphenyl)-1H-pyrazol-4-yl]oxy]benzonitrile], for which the results for the EC50 in test [1] and in test [2] were 10.9 nM and 102 nM, respectively.
In the same order, the values of `N#Cc1ccc(Oc2cn[nH]c2-c2ccccc2O)cc1` [Example 78, 4-[[3-(2-Hydroxyphenyl)-1H-pyrazol-4-yl]oxy]benzonitrile] are 0.3 nM and 10.7 nM.
Taken in the same sequence, the figures for `COc1ccc(Oc2cn[nH]c2-c2ccc(Cl)cc2)cc1` [Example 2, 3-(4-Chlorophenyl)-4-(4-methoxyphenoxy)-1H-pyrazole] were 463 nM and 1970 nM.
In the same order, the values of `Fc1ccccc1-c1[nH]ncc1Oc1ccc(Cl)cc1` [Example 9, 4-(4-Chlorophenoxy)-5-(2-fluorophenyl)-1H-pyrazole] are 7.9 nM and 167 nM.
Regarding `N#Cc1ccc(Oc2cn[nH]c2-c2cccc(COc3cccc(Cl)n3)c2)cc1` [Example 73, 4-[[3-[3-[(6-Chloropyridin-2-yl)oxymethyl]phenyl]-1H-pyrazol-4-yl]oxy]benzonitrile], the values for the EC50 in test [1] and in test [2] were 104 nM and 411 nM, respectively.
Regarding `N#Cc1ccc(Oc2cn[nH]c2-c2cccc(CO)c2)cc1` [Example 49, 4-[[3-[3-(Hydroxymethyl)phenyl]-1H-pyrazol-4-yl]oxy]benzonitrile], the half-maximal effective concentration (EC50) in test [1] was 13.2 nM; in test [2], 85 nM.
In the case of `N#Cc1ccc(Oc2cn[nH]c2-c2cccc(Cl)c2F)cc1` [Example 30, 4-[[5-(3-Chloro-2-fluorophenyl)-1H-pyrazol-4-yl]oxy]benzonitrile], the EC50 in test [1] was 8 nM; in test [2], 191 nM.
Taken in the same sequence, the figures for `CC(=O)N1CCCC(c2[nH]ncc2Oc2ccc(C#N)cc2)C1` (racemic) [Example 62, (rac)-4-[[3-(1-Acetylpiperidin-3-yl)-1H-pyrazol-4-yl]oxy]benzonitrile] were 370 nM and 2280 nM.
Turning to `Fc1c(Cl)cccc1-c1[nH]ncc1Oc1ccc(Cl)cc1` [Example 31, 5-(3-Chloro-2-fluorophenyl)-4-(4-chlorophenoxy)-1H-pyrazole], the EC50 in test [1] turned out to be 191 nM; in test [2], 1820 nM.
Taken in the same sequence, the figures for `Fc1cc(Cl)ccc1-c1[nH]ncc1Oc1ccc(Cl)cc1` [Example 11, 5-(4-Chloro-2-fluorophenyl)-4-(4-chlorophenoxy)-1H-pyrazole] were 45.8 nM and 433 nM.
As for `N#Cc1ccc(Oc2cn[nH]c2-c2cccc(OCc3ccnc(Cl)c3)c2F)cc1` [Example 86, 4-[[3-[3-[(2-Chloropyridin-4-yl)methoxy]-2-fluorophenyl]-1H-pyrazol-4-yl]oxy]benzonitrile], the values for the EC50 in test [1] and in test [2] were 4.3 nM and 28 nM, respectively.
Turning to `N#Cc1ccc(Oc2cn[nH]c2C2CCCN(C(=O)c3cccnc3)C2)cc1` (racemic) [Example 64, (rac)-4-[[3-[1-(Pyridine-3-carbonyl)piperidin-3-yl]-1H-pyrazol-4-yl]oxy]benzonitrile], the values for the EC50 in test [1] and in test [2] were 405 nM and 8160 nM, respectively.
In the same order, the values of `FC(F)Oc1ccccc1-c1[nH]ncc1Oc1ccc(Cl)cc1` [Example 8, 4-(4-Chlorophenoxy)-5-[2-(difluoromethoxy)phenyl]-1H-pyrazole] are 4 nM and 75.7 nM.
On to `CS(=O)(=O)c1ccc(-c2[nH]ncc2Oc2ccc(C#N)cc2)cc1` [Example 18, 4-[[5-(4-Methylsulfonylphenyl)-1H-pyrazol-4-yl]oxy]benzonitrile], for which the EC50 is 23.9 nM in test [1] and 462 nM in test [2].
In the same order, the values of `N#Cc1ccc(Oc2cn[nH]c2C2CCCN(C(=O)c3ccccn3)C2)cc1` (racemic) [Example 65, (rac)-4-[[3-[1-(Pyridine-2-carbonyl)piperidin-3-yl]-1H-pyrazol-4-yl]oxy]benzonitrile] are 1410 nM and 5910 nM.
In the same order, the values of `Clc1ccc(Oc2cn[nH]c2-c2ccc(Cl)cc2)cc1` [Example 3, 4-(4-Chlorophenoxy)-3-(4-chlorophenyl)-1H-pyrazole] are 323 nM and 1380 nM.
In the case of `CS(=O)(=O)c1ccc(-c2[nH]ncc2Oc2ccc(C(F)(F)F)cc2)cc1` [Example 16, 5-(4-Methylsulfonylphenyl)-4-[4-(trifluoromethyl)phenoxy]-1H-pyrazole], the results for the EC50 in test [1] and in test [2] were 84.5 nM and 1970 nM, respectively.
In the same order, the values of `N#Cc1ccc(Oc2cn[nH]c2-c2ccccc2C(=O)O)cc1` [Example 40, 2-[4-(4-Cyanophenoxy)-1H-pyrazol-3-yl]benzoic acid] are 1500 nM and over 30000 nM.
In the same order, the values of `Cn1cc(COc2ccccc2-c2[nH]ncc2Oc2ccc(C#N)cc2)cn1` [Example 80, 4-[[3-[2-[(1-Methylpyrazol-4-yl)methoxy]phenyl]-1H-pyrazol-4-yl]oxy]benzonitrile] are 0.3 nM and 6.9 nM.
In the same order, the values of `N#Cc1ccc(Oc2cn[nH]c2-c2cccc(OCc3ccnc(Cl)c3)c2)cc1` [Example 55, 4-[[3-[3-[(2-Chloropyridin-4-yl)methoxy]phenyl]-1H-pyrazol-4-yl]oxy]benzonitrile] are 33.1 nM and 288 nM.
Turning to `N#Cc1ccc(Oc2cn[nH]c2-c2cccc(OCc3ccncc3)c2F)cc1` [Example 85, 4-[[3-[2-Fluoro-3-(pyridin-4-ylmethoxy)phenyl]-1H-pyrazol-4-yl]oxy]benzonitrile], the EC50 in test [1] turned out to be 0.3 nM; in test [2] it was 5.2 nM.
Turning to `COC(=O)c1cccc(-c2[nH]ncc2Oc2ccc(C#N)cc2F)c1` [Example 38, Methyl 3-[4-(4-cyano-2-fluorophenoxy)-1H-pyrazol-3-yl]benzoate], the EC50 in test [1] was 31.9 nM; in test [2], 321 nM.
Taken in the same sequence, the figures for `FC(F)(F)Oc1ccccc1-c1[nH]ncc1Oc1ccc(Cl)cc1` [Example 7, 4-(4-Chlorophenoxy)-5-[2-(trifluoromethoxy)phenyl]-1H-pyrazole] were 24.4 nM and 861 nM.
Turning to `N#Cc1ccc(Oc2cn[nH]c2-c2cccc(COc3cccnc3)c2)cc1` [Example 70, 4-[[3-[3-(Pyridin-3-yloxymethyl)phenyl]-1H-pyrazol-4-yl]oxy]benzonitrile], the values for the half-maximal effective concentration (EC50) in test [1] and in test [2] were 10.6 nM and 38.3 nM, respectively.
On to `N#Cc1ccc(Oc2cn[nH]c2-c2cccc(F)c2F)cc1` [Example 29, 4-[[5-(2,3-Difluorophenyl)-1H-pyrazol-4-yl]oxy]benzonitrile], for which the results for the half-maximal effective concentration (EC50) in test [1] and in test [2] were 7.5 nM and 161 nM, respectively.
Taken in the same sequence, the figures for `N#Cc1ccc(Oc2cn[nH]c2-c2cccc(OCc3ccccn3)c2)cc1` [Example 50, 4-[[3-[3-(Pyridin-2-ylmethoxy)phenyl]-1H-pyrazol-4-yl]oxy]benzonitrile] were 10.4 nM and 51.6 nM.
